Source: patent EP1038532A1, “IMMUNOMODULATOR AND PHARMACEUTICAL COMPOSITIONS WITH ANTITUMOR PROPERTIES, AND A FOOD ADDITIVE” (Kaljuzhin, Oleg Vitallievich, priority 1997, dated 1998)

Columns and labels:
[1] = tested on: lymphocytes in a mixed lymphocyte culture (MLC); test: Proliferation of lymphocytes in a mixed lymphocyte culture (MLC); type: cell-based; settings: mean ± S.D. of six experiments, control 11.9±0.9
Description: Each value in the table is the mean index of proliferation stimulation of lymphocytes in MLC ± S.D. of six independent experiments.

[2] = tested on: mouse splenocytes; test: LPS-induced proliferation of mouse splenocytes; type: cell-based; settings: LPS stimulation 1 µg/ml, mean ± S.D. of three experiments, control 3.4±0.2
Description: Each value in the table is the index of proliferation of lymphocytes in response to stimulation of 1 µg/ml under the influence of MDP derivatives (arithmetical mean ± S.D. of three independent experiments).

[3] = tested on: IL-1; test: IL-1 production by peritoneal macrophages, read out by thymocyte proliferation; type: cell-based, C57BL/6 mouse; settings: control 1.3±0.4
Description: (§1) Each value in the table is the mean ± S.D. of three independent experiments.

[4] = tested on: TNF; test: TNF production by peritoneal macrophages, read out by lysis of L929 cells; type: cell-based, C57BL/6 mouse; settings: control 7±6
Description: as §1

[5] = Distribution of 14C-labelled preparations in the water/chloroform model membrane; type: physicochemical
Description: Marked differences in distribution of 14C-labelled preparations in the phases of this model "membrane" have been found. 64% of C7H15MDP was included in the water phase, and 36% of the preparation in the organic phase. At the same time, the water phase included only 28% of its lipophilic homologue, and the organic phase 72%.

[6] = cholesterol/phosphatidylcholine model lipid membrane
[7] = tested on: human erythroleukemia K562 cells
[8] = tested on: melanoma B16; test: Antitumor activity in the mouse melanoma B16 model; type: in vivo, C57BL/6 mice; settings: for Inhibition of tumor growth: day 21
Description: (§2) Experimental procedures. Briefly, suspension of lymphoma EL-4 or melanoma B16 cells (10^6 cells) was injected subcutaneously into the footpad of C57BL/6 mice. Then mice underwent course of C7H15MDP treatment. Solution of the preparation in phosphate buffer saline (PBS) was administered i.v. or p.o. Single dosage for p.o. administration was of 1 mg/kg in weight, and of 0.5 mg/kg in weight when administered i.v. The preparation was administered twice a week during 3 weeks, beginning immediately after implantation of tumor cells. Besides, some tumor-bearing mice were treated with the preparation encapsulated in liposomes consisting of phosphatidylcholine:phosphatudylserine mixture (7:3).
(§3) Liposomal C7H15MDP in dose of 0.25 mg/kg was administered i.v. by the same schedule that was used with unencapsulated preparation.
(§4) Control mice were treated with PBS without active compound.
(§5) Antitumor effect was estimated using the following criteria: (1) prolongation of life-span, (2) inhibition of tumor growth.

[9] = tested on: lymphoma EL-4; test: Antitumor activity in the mouse lymphoma EL-4 model; type: in vivo, C57BL/6 mice; settings: for Inhibition of tumor growth: day 21
Description: as §2, §3, §4, §5

[10] = tested on: lymphoma EL-4 or melanoma B16; test: Further antitumor trials in tumor-bearing mice (tumor type not specified); type: in vivo, C57BL/6 mice; settings: treatment begun 1 week before tumor implantation
Description: Experimental procedures. Briefly, suspension of lymphoma EL-4 or melanoma B16 cells (10^6 cells) was injected subcutaneously into the footpad of C57BL/6 mice. […] Solution of the preparation in phosphate buffer saline (PBS) was administered i.v. or p.o. Single dosage for p.o. administration was of 1 mg/kg in weight, and of 0.5 mg/kg in weight when administered i.v. […] Besides, some tumor-bearing mice were treated with the preparation encapsulated in liposomes consisting of phosphatidylcholine:phosphatudylserine mixture (7:3).
as §3
However, all methods of administration (p.o., i.v., liposomal i.v.) seem to be rational. Exact administration method is to be defined individually taking into account localization and type of tumor and other factors.

[11] = i.v., 0.5 mg/kg twice a week during 3 weeks
[12] = p.o., 1 mg/kg twice a week during 3 weeks

Row | SMILES | mean index of proliferation stimulation of lymphocytes in MLC ([1]; 5 µM) | mean index of proliferation stimulation of lymphocytes in MLC ([1]; 10 µM) | mean index of proliferation stimulation of lymphocytes in MLC ([1]; 20 µM) | index of proliferation of lymphocytes ([2]; 5 µM) | index of proliferation of lymphocytes ([2]; 10 µM) | index of proliferation of lymphocytes ([2]; 20 µM) | Proliferation of tymocytes cultured with samples of IL-1 (index of proliferation) ([3]; 5 µM) | Proliferation of tymocytes cultured with samples of IL-1 (index of proliferation) ([3]; 10 µM) | Proliferation of tymocytes cultured with samples of IL-1 (index of proliferation) ([3]; 20 µM) | Cytosis of L929 cells by samples of TNF ([4]; 5 µM) [%] | Cytosis of L929 cells by samples of TNF ([4]; 10 µM) [%] | Cytosis of L929 cells by samples of TNF ([4]; 20 µM) [%] | share of preparation included in the organic phase [5] [%] | share of preparation included in the water phase [5] [%] | time at which the preparation appeared in the second water phase [6] [h] | also measured
1 | CCCCCCCCCCCCCCCCO[C@@H]1O[C@H](CO)[C@@H](O)[C@H](O[C@H](C)C(=O)N[C@@H](C)C(=O)N[C@H](CCC(=O)O)C(N)=O)[C@H]1NC(C)=O [C16H33MDP, β-hexadecylglycoside-MDP] | 9.5±1.2 | 7.7±0.4 | 5.9±0.8 | 3.0±0.1 | 2.6±0.3 | 3.0±1.0 | 3.8±0.1 | 3.9±0.4 | 3.9±0.1 | 36±15 | 40±16 | 47±10 | 72 | 28 | 1 | time at which concentration in the second water phase became significant [6]: 6 h; binding to the cells, more intensive than amphiphilic homologue [7]: 50%; time at which cell-associated radioactivity entered the plateau stage [7]: 2 h
2 | CCCCCCCO[C@@H]1O[C@H](CO)[C@@H](O)[C@H](O[C@H](C)C(=O)N[C@@H](C)C(=O)N[C@H](CCC(=O)O)C(N)=O)[C@H]1NC(C)=O [C7H15MDP, β-heptylglycoside-MDP] | 14.5±0.9 | 16.4±0.6 | 15.9±1.4 | 4.4±0.3 | 4.6±0.3 | 4.4±0.3 | 3.8±0.2 | 3.9±0.2 | 4.8±0.2 | 41±2 | 57±8 | 62±5 | 36 | 64 | 24 | Prolongation of life-span [8, 11]: 101%; Mean life-span ([8]; i.v., 0.5 mg/kg twice a week during 3 weeks, control (PBS i.v.) 36±3): 74 ± 9 days; Tumor node volume at the day 21 after tumor inoculation ([8]; i.v., 0.5 mg/kg, control (PBS i.v.) 736±51): 494±49 mm^3; Inhibition of tumor growth ([8]; i.v., 0.5 mg/kg): 33%; Prolongation of life-span [8, 12]: 70%; Mean life-span ([8]; p.o., 1 mg/kg twice a week during 3 weeks, control (PBS p.o.) 30±4): 51 ± 5 days; Tumor node volume at the day 21 after tumor inoculation ([8]; p.o., 1 mg/kg, control (PBS p.o.) 765±69): 571±65 mm^3; Inhibition of tumor growth ([8]; p.o., 1 mg/kg): 25%; Prolongation of life-span [9, 11]: 62%; Mean life-span ([9]; i.v., 0.5 mg/kg twice a week during 3 weeks, control (PBS i.v.) 39±4): 63 ± 5 days; Tumor node volume at the day 21 after tumor inoculation ([9]; i.v., 0.5 mg/kg, control (PBS i.v.) 789±64): 463±52 mm^3; Inhibition of tumor growth ([9]; i.v., 0.5 mg/kg): 41%; Prolongation of life-span [9, 12]: 19%; Mean life-span ([9]; p.o., 1 mg/kg twice a week during 3 weeks, control (PBS p.o.) 42±6): 50 ± 7 days; Tumor node volume at the day 21 after tumor inoculation ([9]; p.o., 1 mg/kg, control (PBS p.o.) 842±78): 650±73 mm^3; Inhibition of tumor growth ([9]; p.o., 1 mg/kg): 23%; tumor regression [10]: complete regression of tumor was observed in several cases; time to reach a state of equilibrium between concentrations in water phases from both sides of the model membrane ([6]; first to reach equilibrium): 72 h
